From patent US9567339B2, “Primary carboxamides as BTK inhibitors” (AbbVie Inc., priority 2013, dated 2017)
Where two headings read alike, the source gives them in different places.

Target: BTK, recombinant human catalytic domain (aa 393-659) (Homo sapiens (Human), UniProt Q06187)
Experiment: In vitro BTK kinase activity measured by time-resolved fluorescence resonance energy transfer (trFRET)
Format: biochemical
Conditions: read-out: Btk IC50
[1] = trFRET, 0.001 mM ATP, biotin-TYR1 peptide substrate

Chain of BTK, recombinant human catalytic domain (aa 393-659) (Q06187 393-659): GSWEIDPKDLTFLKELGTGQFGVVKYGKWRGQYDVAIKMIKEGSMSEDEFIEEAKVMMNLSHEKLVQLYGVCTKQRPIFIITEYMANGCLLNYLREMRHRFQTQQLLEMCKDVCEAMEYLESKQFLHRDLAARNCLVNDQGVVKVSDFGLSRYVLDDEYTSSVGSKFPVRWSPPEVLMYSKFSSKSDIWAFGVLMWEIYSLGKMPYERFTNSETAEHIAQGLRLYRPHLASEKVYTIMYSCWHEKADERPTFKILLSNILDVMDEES

SMILES | IC50 | IC50 [1]
C=CC(=O)N1C[C@@H](CO)C[C@@H](c2ccc(C(N)=O)c3[nH]ccc23)C1 [E.9.45] | 1000 to 10000 nM | 
Cc1ccc(-c2cc3c(-c4cnn(C)c4)ccc(C(N)=O)c3[nH]2)cc1 [A.8.7] |  | 100 to 1000 nM
CCNC(=O)/C=C\C(=O)Nc1cccc(-c2ccc(C(N)=O)c3[nH]ccc23)c1 [D.9.2] |  | < 100 nM
C=CC(=O)Nc1cc(-c2ccc(C(N)=O)c3[nH]ccc23)ccn1 [E.1.3] | < 100 nM | 
CS(=O)(=O)N1CC=C(c2cc3c(N4CCC[C@@H](n5ccn6ccnc6c5=O)C4)ccc(C(N)=O)c3[nH]2)CC1 [O.1.4*] | < 100 nM | 
C=C(CNC)C(=O)Nc1cccc(-c2ccc(C(N)=O)c3[nH]ccc23)c1 [G.1.3] | < 100 nM | 
C=CC(=O)N1CCC[C@@H](c2ncc(C(N)=O)c3[nH]ccc23)C1 [E.9.32] | < 100 nM | 
COCCNC/C=C/C(=O)Nc1cccc(-c2ccc(C(N)=O)c3[nH]ccc23)c1C [J.1.3] | 1000 to 10000 nM | 
NC(=O)c1ccc(-c2ccn[nH]2)c2cc(-c3ccc(F)cc3)[nH]c12 [A.9.5] |  | 100 to 1000 nM
C=CC(=O)N1CC(N(C)c2ccc(C(N)=O)c3[nH]c(-c4ccc(N5CCOCC5)nc4)cc23)C1 [E.9.10] | < 100 nM | 
Cc1ccc(-c2cc3c(-c4cccnc4)ccc(C(N)=O)c3[nH]2)cc1 [A.8.3] |  | 100 to 1000 nM
NC(=O)c1ccc(-c2cccc(NC(=O)/C=C/C(=O)O)c2)c2cc[nH]c12 [C.1, (E)-4-((3-(7-Carbamoyl-1H-indol-4-yl)phenyl)amino)-4-oxobut-2-enoic acid] |  | 1000 to 10000 nM
C=CC(=O)Nc1cc(-c2ccc(C(N)=O)c3[nH]ccc23)ccc1OCc1nccs1 [E.1.13] | 100 to 1000 nM | 
C=CC(=O)Nc1cccc(-c2ccc(C(N)=O)c3[nH]c(CCO)cc23)c1 [Example 23, 4-(3-Acrylamidophenyl)-2-(2-hydroxyethyl)-1H-indole-7-carboxamide] |  | < 100 nM
C=CC(=O)N1CC(C)(N(C)c2ccc(C(N)=O)c3[nH]ccc23)C1 [E.9.35] | < 100 nM | 
C=CC(=O)Nc1ccc(F)c(-c2ccc(C(N)=O)c3[nH]ccc23)c1 [E.1.32] | 100 to 1000 nM | 
C=CC(=O)N1C[C@@H](CO)C[C@H](c2ccc(C(N)=O)c3[nH]ccc23)C1 [E.9.46] | 1000 to 10000 nM | 
C=C(CN)C(=O)Nc1cccc(-c2ccc(C(N)=O)c3[nH]ccc23)c1 [G.1.2] | < 100 nM | 

SMILES | IC50 | IC50 [1]
CCNC(=O)/C=C/C(=O)Nc1cccc(-c2ccc(C(N)=O)c3[nH]ccc23)c1 [D.4.3] |  | 1000 to 10000 nM
CC(C)(C)c1cc(C(=O)N[C@@H]2CCCN(c3ccc(C(N)=O)c4[nH]ccc34)C2)no1 [O.1.10*] | 1000 to 10000 nM | 
Cc1c(NC2COC2)cccc1-c1ccc(C(N)=O)c2[nH]ccc12 [O.1.2] | 1000 to 10000 nM | 
C=CC(=O)N1CC[C@@H](c2ccc(C(N)=O)c3[nH]c(C)cc23)C1 [E.9.40*] | 100 to 1000 nM | 
C=CC(=O)N1CCC[C@@H](c2ccc(C(N)=O)c3[nH]c(C)cc23)C1 [E.9.7] | < 100 nM | 
Cc1c(N)cccc1-c1ccc(C(N)=O)c2[nH]c(C3=CCC(F)(F)CC3)cc12 [Example 21, 4-(3-Amino-2-methylphenyl)-2-(4,4-difluorocyclohex-1-enyl)-1H-indole-7-carboxamide] |  | < 100 nM
NC(=O)c1ccc(-c2ccncc2)c2cc(-c3ccc(F)cc3)[nH]c12 [A.9.4] |  | 100 to 1000 nM
C=CC(=O)Nc1cc(OC)cc(-c2ccc(C(N)=O)c3[nH]ccc23)c1 [E.1.28] | 100 to 1000 nM | 
Cc1noc(C)c1-c1ccc(C(N)=O)c2[nH]c(-c3ccc(F)cc3)cc12 [A.9.3] |  | 100 to 1000 nM
C=CC(=O)N[C@@H]1CCCN(c2ccc(C(N)=O)c3[nH]c(C4=CCN(S(C)(=O)=O)CC4)cc23)C1 [E.1.11*] | < 100 nM | 
Cc1oncc1C(=O)Nc1cccc(-c2ccc(C(N)=O)c3[nH]ccc23)c1 [E.2.1, N-(3-(7-carbamoyl-1H-indol-4-yl)phenyl)-5-methylisoxazole-4-carboxamide] |  | 1000 to 10000 nM
C=CC(=O)N1CC(Oc2ccc(C(N)=O)c3[nH]ccc23)C1 [Example 27, 4-((1-Acryloylazetidin-3-yl)oxy)-1H-indole-7-carboxamide] |  | < 100 nM
C=CC(=O)Nc1cc(C)cc(-c2ccc(C(N)=O)c3[nH]ccc23)c1 [E.1.29] | 100 to 1000 nM | 
Cc1c(NC(=O)c2nccs2)cccc1-c1ccc(C(N)=O)c2[nH]cc(NC(=O)COc3ccc(F)cc3)c12 [D.3.6] |  | 1000 to 10000 nM
C=CC(=O)Nc1cc(OCc2nccs2)cc(-c2ccc(C(N)=O)c3[nH]ccc23)c1 [E.1.15] | 100 to 1000 nM | 
NC(=O)c1ccc(-c2ccnc(N)c2)c2cc[nH]c12 [A.5.3, 4-(2-aminopyridin-4-yl)-1H-indole-7-carboxamide] |  | 1000 to 10000 nM
C=CC(=O)N1CC(N(C)c2ccc(C(N)=O)c3[nH]c(C4=CCC(F)(F)CC4)cc23)C1 [E.9.5] | < 100 nM | 

Results, then the molecule that gave them:

IC50 | IC50 [1] | SMILES
1000 to 10000 nM |  | C=CC(=O)Nc1ccccc1-c1ccc(C(N)=O)c2[nH]ccc12 [E.1.2]
< 100 nM |  | Cc1c(NC(=O)C2CCCC2)cccc1-c1ccc(C(N)=O)c2[nH]c(C3=CCN(S(C)(=O)=O)CC3)cc12 [D.7.31]
 | < 100 nM | C=CC(=O)Nc1cccc(-c2ccc(C(N)=O)c3[nH]c(-c4cccc(OC)c4)cc23)c1C [A.1.22]
< 100 nM |  | C=CC(=O)Nc1cccc(-c2ccc(C(N)=O)c3[nH]c(C4=CCN(S(C)(=O)=O)CC4)cc23)c1C [D.7.6]
 | < 100 nM | C=CC(=O)Nc1cccc(-c2ccc(C(N)=O)c3[nH]c(C4=CCN(S(C)(=O)=O)CC4)cc23)c1 [A.4.15]
< 100 nM |  | CCOC(=O)N1CC=C(c2cc3c(-c4cccc(-n5cnc6ccccc6c5=O)c4C)ccc(C(N)=O)c3[nH]2)CC1 [E.6.2]
< 100 nM |  | C=CC(=O)Nc1cc(-c2ccc(C(N)=O)c3[nH]ccc23)ccc1C [E.1.25]
< 100 nM |  | CCC(Cl)C(=O)Nc1cccc(-c2ccc(C(N)=O)c3[nH]c(C4=CCN(S(C)(=O)=O)CC4)cc23)c1C (stereo not shown) [D.7.26]
< 100 nM |  | C/C=C/C(=O)Nc1cccc(-c2ccc(C(N)=O)c3[nH]c(C4=CCN(S(C)(=O)=O)CC4)cc23)c1C [D.7.9]
< 100 nM |  | C=CC(=O)Nc1cccc(-c2ccc(C(N)=O)c3[nH]ccc23)c1F [E.1.33]
100 to 1000 nM |  | Cc1c(NC(=O)/C=C/CN2CCCCC2)cccc1-c1ccc(C(N)=O)c2[nH]ccc12 [J.1.1]
< 100 nM |  | Cc1c(NC(=O)CCN(C)C)cccc1-c1ccc(C(N)=O)c2[nH]c(C3=CCN(S(C)(=O)=O)CC3)cc12 [D.7.23]
 | < 100 nM | C=CC(=O)Nc1cccc(-c2ccc(C(N)=O)c3[nH]c(-c4ccc(OC)cc4)cc23)c1C [A.1.23]
 | < 100 nM | C=CC(=O)Nc1cccc(-c2ccc(C(N)=O)c3[nH]c(-c4ccnc(OC)c4)cc23)c1C [A.1.13]
 | < 100 nM | Cc1c(-c2ccc(C(N)=O)c3[nH]c(C4=CCN(S(C)(=O)=O)CC4)cc23)cccc1-n1cnc2ccccc2c1=O [A.4.18]
 | < 100 nM | Cc1c(NC(=O)c2cc3c(s2)CCCC3)cccc1-c1ccc(C(N)=O)c2[nH]c(-c3cnn(C)c3)cc12 [A.10.5]
 | 100 to 1000 nM | C=CC(=O)Nc1cccc(-c2ccc(C(N)=O)c3[nH]c(-c4cc(S(=O)(=O)N5CCCC5)ccc4C)cc23)c1C [A.1.28]
 | < 100 nM | Cc1c(-c2ccc(C(N)=O)c3[nH]c(C4=CCOCC4)cc23)cccc1-n1cnc2ccccc2c1=O [A.11.1]
 | < 100 nM | C=CC(=O)Nc1cccc(-c2ccc(C(N)=O)c3[nH]c(-c4ccc(C(=O)N(C)C)cc4)cc23)c1C [A.1.35]

IC50 | IC50 [1] | SMILES
100 to 1000 nM |  | Cc1c(NC(=O)c2nccs2)cccc1-c1ccc(C(N)=O)c2[nH]c(-c3ccccc3CNC(=O)CCl)cc12 [E.4.1]
 | < 100 nM | Cc1c(NC(=O)c2ccc(C(F)F)cc2)cccc1-c1ccc(C(N)=O)c2[nH]c(C3=CCN(S(C)(=O)=O)CC3)cc12 [A.4.10]
 | < 100 nM | C=CC(=O)Nc1cccc(-c2ccc(C(N)=O)c3[nH]c(-c4cccc(N(C)C)c4)cc23)c1C [A.1.27]
 | < 100 nM | CC(=O)N1CC=C(c2cc3c(-c4cccc(NC(=O)c5cc6c(s5)CCCC6)c4C)ccc(C(N)=O)c3[nH]2)CC1 [A.3.5]
 | < 100 nM | Cc1c(-c2ccc(C(N)=O)c3[nH]c(-c4cccnc4)cc23)cccc1N1Cc2ccc(F)cc2C1=O [A.7.6]
 | 100 to 1000 nM | Cc1c(NC(=O)/C=C/C2CC2)cccc1-c1ccc(C(N)=O)c2[nH]ccc12 [D.8.6]
 | < 100 nM | C=CC(=O)Nc1cccc(-c2ccc(C(N)=O)c3[nH]c(-c4cnn(CCN5CCOCC5)c4)cc23)c1C [A.1.8]
 | < 100 nM | C=CC(=O)Nc1cccc(-c2ccc(C(N)=O)c3[nH]c(-c4ccc(C(=O)N5CCCC5)cc4)cc23)c1C [A.1.38]
 | < 100 nM | C=CC(=O)Nc1cccc(-c2ccc(C(N)=O)c3[nH]c(CC)cc23)c1 [Example 20, 4-(3-Acrylamidophenyl)-2-ethyl-1H-indole-7-carboxamide]
 | < 100 nM | Cc1c(-c2ccc(C(N)=O)c3[nH]c(C4=CCN(C)C4)cc23)cccc1-n1cnc2ccccc2c1=O [H.1, 2-(1-Methyl-2,5-dihydro-1H-pyrrol-3-yl)-4-(2-methyl-3-(4-oxoquinazolin-3(4H)-yl)phenyl)-1H-indole-7-carboxamide]
 | 1000 to 10000 nM | Cc1c(NC(=O)CCN2CCCC2)cccc1-c1ccc(C(N)=O)c2[nH]ccc12 [D.8.14]
 | 100 to 1000 nM | Cc1c(NC(=O)/C=C/C(C)C)cccc1-c1ccc(C(N)=O)c2[nH]ccc12 [D.8.8]
 | 100 to 1000 nM | Cc1c(NC(=O)/C=C/c2nccs2)cccc1-c1ccc(C(N)=O)c2[nH]ccc12 [D.8.5]
 | < 100 nM | C=CC(=O)Nc1cccc(-c2ccc(C(N)=O)c3[nH]c(-c4cncnc4)cc23)c1C [A.1.10]
 | < 100 nM | CS(=O)(=O)N1CC=C(c2cc3c(-c4cccc(Nc5ccnc(C#N)n5)c4)ccc(C(N)=O)c3[nH]2)CC1 [A.4.8]
 | 1000 to 10000 nM | Cc1c(NC(=O)CCN2CCOCC2)cccc1-c1ccc(C(N)=O)c2[nH]ccc12 [D.8.13]
 | < 100 nM | C=CC(=O)Nc1cccc(-c2ccc(C(N)=O)c3[nH]c(-c4ccccc4F)cc23)c1C [A.1.29]
< 100 nM |  | Cc1c(-c2ccc(C(N)=O)c3[nH]c(C4=CCN(C)CC4)cc23)cccc1-n1cnc2ccccc2c1=O [H.1.1]
 | < 100 nM | CC(=O)N1CC=C(c2cc3c(-c4cccc(NC(=O)c5ccc(C(F)F)cc5)c4C)ccc(C(N)=O)c3[nH]2)CC1 [A.3.7, 2-(1-acetyl-1,2,3,6-tetrahydropyridin-4-yl)-4-(3-(4-(difluoromethyl)benzamido)-2-methylphenyl)-1H-indole-7-carboxamide]
